Test results as given in US8168677B2, “Method for treatment of inflammatory bowel disease” (Kemphys Ltd., priority 2005, dated 2012).
Values joined by “and” are separate entries in the source; they are usually repeats but may differ in a detail not shown here. Equal values may be shown once.

Tests used:
[1] = test system: rat model of inflammatory bowel disease (DNBS instilled intracolonically); experiment: Evaluation of retinoids which bind to RAR and RXR using DNBS-induced rat model of inflammatory bowel disease (Example 2); format: in vivo, Wistar rats; conditions: for Bowel Inflammation Score [average]: 24 h and 2 h before DNBS and once daily for 5 days, macroscopic score 0-10, N = 5; for Presence or Absence of Adhesion (in five rats per group): number of animals with adhesion
Protocol: Male or female Wistar rats weighing 200±5 g were used to create an animal model of inflammatory bowel disease. After the animals were fasted for 24 hours, DNBS (2,4-Dinotrobenzenesulfonic Acid, 30 mg in 0.5 ml 30% ethanol) was instilled intracolonically through the anus. As the medicaments of the present invention, 4-[2,3-(2,5-dimethyl-2,5-hexano)dibenzo[b,f][1,4]thiazepin-11-yl] benzoic acid (HX630) at 3 mg/kg, 4-(5H-7,8,9,10-tetrahydro-5,7,7,10,10-pentamethylbenzo[e]naphtho[2,3-b][1,4]diazepin-13-yl)benzoic acid (LE135) at 5 mg/kg, or a combination of 0.1 mg/kg of Am80 and 3 mg/kg of HX630 were used, and as a comparative example (positive control drug), 300mg/kg of salazosulfapyridine (SASP) as a commercially available drug for ulcerative colitis was used, and each drug was administered 24 hours before and 2 hours before the DNBS infusion, and once daily for 5 days after 24 hours from the infusion. Each drug was administered orally as a suspension in 0.5% carboxymethylcellulose. For the control group, the solvent was administered orally according to the same schedule. The animals were subjected to anatomic examination 24 hours after the final administration, and a degree of bowel inflammation was observed. For each of the Tamibarotene-administered group, SASP-administered group, the normal group, and the control group, five rats were used.
(§1) The results are indicated as the scores of bowel inflammation (average), weight of the colon per unit body weight (100 g body weight) (average±standard error), and the number of animals in each group that gave adhesion. The scoring of bowel inflammation were conducted by visual observation according to the method of judgment described in the reference (Am. J. Physiol., 258: G527-34, 1990). • Score of Bowel Ulceration and Inflammation (Macroscopic) • Score: observation • 0: Normal; • 1: Localized hyperemia, no ulcers; • 2: Ulceration without hyperemia or colonic wall thickening; • 3: Inflammation and ulceration at one site; • 4: Ulcers and Inflammations at two or more sites; • 5: A major damaged site extending in 1 cm or longer along the direction of the colon length; and • 6-10: When a major damaged site extends in 2 cm or longer along the direction of the colon length, a score is increased by one for each additional 1 cm over 2 cm.

[2] = test system: model rat of inflammatory bowel disease (DNBS instilled intracolonically); experiment: Evaluation of Am80 using DNBS-induced model rat of inflammatory bowel disease (Example 1); format: in vivo, Wistar rats; conditions: for Presence or Absence of Adhesion (in five rats per group): number of animals with adhesion
Protocol: Male or female Wistar rats weighing 200±5 g were used to create an animal model of inflammatory bowel disease. After the animals were fasted for 24 hours, DNBS (2,4-Dinotrobenzenesulfonic Acid, 30 mg in 0.5 ml 30% ethanol) was instilled intracolonically through the anus. Each of 4-[(5,6,7,8-tetrahydro-5,5,8,8-tetramethyl-2-naphthalenyl)carbamoyl]benzoic acid (Am80, generic name: Tamibarotene) as the medicament of the present invention so as to be a dose at 0.3 mg/kg, and salazosulfapyridine (SASP), a commercially available drug for ulcerative colitis, as a comparative example (positive control drug) so as to be a dose at 300 mg/kg was administered 24 hours before and 2 hours before the DNBS infusion, and once daily for 5 days after 24 hours from the infusion. Tamibarotene or SASP was each administered orally as a suspension in 0.5% carboxymethylcellulose. For the control group, the solvent was administered orally according to the same schedule as that for SASP. The animals were subjected to anatomic examination 24 hours after the final administration, and a degree of bowel inflammation was observed. For each of the Tamibarotene-administered group, SASP-administered group, the normal group, and the control group, five rats were used.
as §1, with “of the bowel per unit” for “of the colon per unit”

CC1(C)CCC(C)(C)c2cc3c(cc21)Sc1ccccc1N=C3c1ccc(C(=O)O)cc1 [HX630, 4-[2,3-(2,5-dimethyl-2,5-hexano)dibenzo[b,f][1,4]thiazepin-11-yl] benzoic acid]
Bowel Inflammation Score [average] ([1]; HX630 3 mg/kg oral): 3.4 | Presence or Absence of Adhesion (in five rats per group) ([1]; HX630 3 mg/kg oral): 1/5

CN1c2cc3c(cc2N=C(c2ccc(C(=O)O)cc2)c2ccccc21)C(C)(C)CCC3(C)C [LE135, 4-(5H-7,8,9,10-tetrahydro-5,7,7,10,10-pentamethylbenzo[e]naphtho[2,3-b][1,4]diazepin-13-yl)benzoic acid]
Bowel Inflammation Score [average] ([1]; LE135 5 mg/kg oral): 2.4 | Presence or Absence of Adhesion (in five rats per group) ([1]; LE135 5 mg/kg oral): 0/5

O=C(O)c1cc(/N=N/c2ccc(S(=O)(=O)Nc3ccccn3)cc2)ccc1O [SASP, salazosulfapyridine]
Bowel Inflammation Score [average] ([2]; SASP 300 mg/kg oral, 24 h and 2 h before DNBS and once daily for 5 days, macroscopic score 0-10, N = 5): 2 | Colon weight/100 g body weight [average] ([2]; SASP 300 mg/kg oral, average ± standard error, N = 5): 0.682 ± 0.023 | Presence or Absence of Adhesion (in five rats per group) ([2]; SASP 300 mg/kg oral): 2/5

CC1(C)CCC(C)(C)c2cc(NC(=O)c3ccc(C(=O)O)cc3)ccc21 [Tamibarotene, 4-[(5,6,7,8-tetrahydro-5,5,8,8-tetramethyl-2-naphthalenyl)carbamoyl]benzoic acid]
Presence or Absence of Adhesion (in five rats per group) ([2]; Tamibarotene 0.3 mg/kg oral): significantly suppressed and 0/5
